As a reminder, the Ki is a measure of affinity in units of concentration, obtained from inhibition or displacement.

SMILES strings stand for the structures.

In this test the target is Bifunctional dihydrofolate reductase-thymidylate synthase (Plasmodium falciparum, UniProt A7UD81). The test can be described thus: Evaluated for inhibition constant (Ki wt) against Wild-type dihydrofolate reductase of Plasmodium falciparum.
Sequence of Bifunctional dihydrofolate reductase-thymidylate synthase (A7UD81 whole entry): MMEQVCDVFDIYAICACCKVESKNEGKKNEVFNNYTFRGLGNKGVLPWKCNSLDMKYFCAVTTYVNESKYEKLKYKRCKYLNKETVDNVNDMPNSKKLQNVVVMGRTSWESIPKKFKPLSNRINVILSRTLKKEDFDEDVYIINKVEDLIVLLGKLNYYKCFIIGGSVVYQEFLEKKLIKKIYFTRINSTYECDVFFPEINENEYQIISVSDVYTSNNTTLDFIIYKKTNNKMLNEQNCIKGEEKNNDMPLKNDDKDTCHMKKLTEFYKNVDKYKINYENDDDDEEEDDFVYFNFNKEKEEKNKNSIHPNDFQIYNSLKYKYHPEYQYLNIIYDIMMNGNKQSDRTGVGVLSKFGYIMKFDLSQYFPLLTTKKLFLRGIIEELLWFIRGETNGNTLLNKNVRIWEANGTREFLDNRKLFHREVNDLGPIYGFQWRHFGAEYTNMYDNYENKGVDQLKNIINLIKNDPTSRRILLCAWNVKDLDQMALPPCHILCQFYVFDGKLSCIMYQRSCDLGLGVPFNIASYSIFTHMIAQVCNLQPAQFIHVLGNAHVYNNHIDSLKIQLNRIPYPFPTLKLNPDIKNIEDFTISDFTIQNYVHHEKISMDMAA
Turning to `CCCC1N=C(N)N=C(N)N1c1ccc(Cl)cc1` (stereo unspecified) [1-(4-Chloro-phenyl)-6-propyl-1,6-dihydro-[1,3,5]triazine-2,4-diamine], the inhibition constant (Ki) was 4.6 nM. That is a single-digit nanomolar value. Under `CC(C)C1N=C(N)N=C(N)N1c1ccc(Cl)cc1` (stereo unspecified) [1-(4-Chloro-phenyl)-6-isopropyl-1,6-dihydro-[1,3,5]triazine-2,4-diamine] stands 60.5 nM; under `CCCC1N=C(N)N=C(N)N1c1ccc(C)cc1` (stereo unspecified) [6-Propyl-1-p-tolyl-1,6-dihydro-[1,3,5]triazine-2,4-diamine], 13.7 nM; under `CC(C)C1N=C(N)N=C(N)N1c1ccc(Br)cc1` (stereo unspecified) [1-(4-Bromo-phenyl)-6-isopropyl-1,6-dihydro-[1,3,5]triazine-2,4-diamine], 30 nM. The value for `NC1=NCN(c2ccc(Cl)cc2)C(N)=N1` [1-(4-Chloro-phenyl)-1,6-dihydro-[1,3,5]triazine-2,4-diamine] was 24.4 nM. The value for `CCCCC1N=C(N)N=C(N)N1c1ccc(Cl)cc1` (stereo unspecified) [6-Butyl-1-(4-chloro-phenyl)-1,6-dihydro-[1,3,5]triazine-2,4-diamine] was 3.7 nM; that for `CC1(C)N=C(N)N=C(N)N1c1ccccc1` [6,6-Dimethyl-1-phenyl-1,6-dihydro-[1,3,5]triazine-2,4-diamine] was 20 nM; that for `CCC1N=C(N)N=C(N)N1c1ccc(Br)cc1` (stereo unspecified) [1-(4-Bromo-phenyl)-6-ethyl-1,6-dihydro-[1,3,5]triazine-2,4-diamine] was 5.7 nM. In the case of `Cc1ccc(N2C(N)=NC(N)=NC2C)cc1` (stereo unspecified) [6-Methyl-1-p-tolyl-1,6-dihydro-[1,3,5]triazine-2,4-diamine], the inhibition constant (Ki) worked out at 23 nM. Under `CC1(C)N=C(N)N=C(N)N1c1ccc(F)cc1` [1-(4-Fluoro-phenyl)-6,6-dimethyl-1,6-dihydro-[1,3,5]triazine-2,4-diamine] stands 4.6 nM; under `CCC1N=C(N)N=C(N)N1c1ccc(Cl)cc1` (stereo unspecified) [1-(4-Chloro-phenyl)-6-ethyl-1,6-dihydro-[1,3,5]triazine-2,4-diamine], 3.6 nM; under `CC1N=C(N)N=C(N)N1c1ccc(Br)cc1` (stereo unspecified) [1-(4-Bromo-phenyl)-6-methyl-1,6-dihydro-[1,3,5]triazine-2,4-diamine], 5.7 nM. Under `NC1=NC(c2ccccc2)N(c2ccc(Br)cc2)C(N)=N1` (stereo unspecified) [1-(4-Bromo-phenyl)-6-phenyl-1,6-dihydro-[1,3,5]triazine-2,4-diamine] stands 2.9 nM. The value for `CCCC1N=C(N)N=C(N)N1c1ccc(Br)cc1` (stereo unspecified) [1-(4-Bromo-phenyl)-6-propyl-1,6-dihydro-[1,3,5]triazine-2,4-diamine] was 2.6 nM; that for `Cc1ccc(N2C(N)=NC(N)=NC2C(C)C)cc1` (stereo unspecified) [6-Isopropyl-1-p-tolyl-1,6-dihydro-[1,3,5]triazine-2,4-diamine] was 167 nM; that for `Cc1ccc(N2C(N)=NC(N)=NC2c2ccccc2)cc1` (stereo unspecified) [6-Phenyl-1-p-tolyl-1,6-dihydro-[1,3,5]triazine-2,4-diamine] was 7.7 nM. `NC1=NCN(c2ccccc2)C(N)=N1` [1-Phenyl-1,6-dihydro-[1,3,5]triazine-2,4-diamine] showed a Ki of 329 nM. Under `NC1=NCN(c2ccc(F)cc2)C(N)=N1` [1-(4-Fluoro-phenyl)-1,6-dihydro-[1,3,5]triazine-2,4-diamine] stands 270 nM; under `CC1(C)N=C(N)N=C(N)N1c1ccc(Br)cc1` [1-(4-Bromo-phenyl)-6,6-dimethyl-1,6-dihydro-[1,3,5]triazine-2,4-diamine], 1.1 nM; under `CCC1N=C(N)N=C(N)N1c1ccc(C)cc1` (stereo unspecified) [6-Ethyl-1-p-tolyl-1,6-dihydro-[1,3,5]triazine-2,4-diamine], 5.9 nM.

The molecule `CC1N=C(N)N=C(N)N1c1ccc(Cl)c(Cl)c1` (stereo unspecified) [1-(3,4-Dichloro-phenyl)-6-methyl-1,6-dihydro-[1,3,5]triazine-2,4-diamine] displayed a Ki of 1.4 nM.

Source of the values: BindingDB's records for doi:10.1021/jm0009181 (National Center For Genetic Engineering and Biotechnology …, 2000).
